A word on the GI50: it is the concentration at which growth is held to half of that of the control.

The structures appear in SMILES notation.

Consider two compounds from patent US20130231292A1, “Synergistic anti-proliferation activity of TAS-108 with mTOR inhibitors against cancer cells” (priority 2012, published 2013).

The subject of data set [1] is BT-549. The data set is described as follows: Combination screen of TAS-108 with a second compound, CellTiter-Glo. It is filed as cell-based, human. The settings on record: BT-549, in combination with TAS-108. Background: ATP-based viability assays read luminescence as a measure of living cells.
Data set [2] deals with human mammary carcinoma cell lines. Briefly: Combination screen of TAS-108 with a second compound, all six breast lines. The conditions noted are these: number of the six breast cell lines with synergy, in combination with TAS-108.
Experimental: (§1) Cells were treated with compounds alone or in combination for three days and CellTiter-Glo® Luminescent Cell Viability Assay (Promega Corp.) was used as the endpoint to measure cell viability.
(§2) Cells were cultured in RPMI with 10% fetal bovine serum and used between passage 2 and passage 20.
(§3) Other compounds used were purchased from commercial sources (Sigma, AK Scientific). 40 mM Compound stocks in 100% DMSO were made. Master plates were made with Janus (PerkinElmer), then further diluted and added to the cell plates with Matrix Platemate (Thermo) on Day 0.
(§4) CellTiter-Glo® Luminescent Cell Viability Assay (Promega Corp.) was used to measure ATP as an indicator of viable cells on Day 3 using Envision (PerkinElmer) and back up plate reader Analyst HT (MDS) and Gen5 (BioTek).
(§5) Relative Luminescent Units (RLU) were plotted against corresponding drug concentrations and fitted with a standard four parameter sigmoidal curve with custom coded R program. Percentage growth inhibition is calculated as: [(Ti−Tz)/(C−Tz)]×100 for concentrations for which Ti≧Tz and [(Ti−Tz)/Tz]×100 for concentrations for which Ti<Tz.
(§6) Twenty-five doses were tested for each pair of combinations.
(§7) N: no synergistic effect; Y: synergistic effect; y: weak synergistic effect.
The subject of data set [3] is T-47D. The data set is described as follows: Combination screen of TAS-108 with a second compound, CellTiter-Glo. The conditions noted are these: in combination with TAS-108.
Experimental: as §1, §2, §3, §4, §5, §6, §7
Data set [4] concerns MDA-MB-468. The description is as above. The conditions noted are these: MDA-MB-468, in combination with TAS-108.
Experimental: as §1, §2, §3, §4, §5, §6, §7
The test system of data set [5] is HS 578T. Described as above. The settings on record: in combination with TAS-108.
Experimental: as §1, §2, §3, §4, §5, §6, §7
Data set [6] relates to MCF7. The description is as above. The settings on record: MCF7, in combination with TAS-108.
Experimental: as §1, §2, §3, §4, §5, §6, §7
The test system of data set [7] is MDA-MB-231. The description is as above. The settings on record: MDA-MB-231, in combination with TAS-108.
Experimental: as §1, §2, §3, §4, §5, §6, §7
The subject of data set [8] is Tamoxifen-sensitive and Tamoxifen-resistant breast carcinomas. The settings on record: in vitro and in vivo; cited from earlier work.
The conditions of data set [9]: compared to Tamoxifen; cited from earlier work.
Data set [10] relates to BT549. Briefly: CellTiter-Glo cell viability assay, single agents, three days. The settings on record: Homo sapiens, BT-549, 72 h. It is filed as cell-based.
The subject of data set [11] is breast carcinoma cells with aromatose inhibitor resistant characteristics. The conditions noted are these: aromatase inhibitor resistant characteristics; cited from earlier work.
Data set [12] has as its system MCF7. Briefly: CellTiter-Glo cell viability assay, single agents, three days. It is filed as cell-based. The conditions noted are these: Homo sapiens, 72 h.
Data set [13] relates to T47D. Described as above. It is filed as cell-based. The conditions noted are these: Homo sapiens, 72 h.
The subject of data set [14] is MDAMB231. The description is as above. It is filed as cell-based. The settings on record: Homo sapiens, MDA-MB-231, 72 h.
Data set [15] deals with MDAMB468. The data set is described as above. It is filed as cell-based. The settings on record: Homo sapiens, MDA-MB-468, 72 h.
For data set [16] the following is noted: Phase II clinical trial; cited from earlier work.
The subject of data set [17] is HS578T. The data set is described as follows: CellTiter-Glo cell viability assay, single agents, three days. It is filed as cell-based. The conditions noted are these: Homo sapiens, Hs-578T, 72 h, HS578T.
For data set [18] the following is noted: compared to Tamoxifen; cited from earlier work. This is another data set of the same source.
[19] abbreviates: highest dose tested, read-out: Max Inhibition.
Where [20] appears, read: three days, CellTiter-Glo, read-out: GI50.

Consider `CNC(=O)c1cc(Oc2ccc(NC(=O)Nc3ccc(Cl)c(C(F)(F)F)c3)cc2)ccn1` [Sorafenib], for which the “Synergistic effect of TAS 108 paired with compound” value in [1], in data set [3], in [4], in data set [5], in [6] and in data set [7] was “N” throughout. Also, the “Synergy #” value in data set [2] was determined as 0.

Consider `CCN(CC)Cc1ccc(OCC[C@H]2CC[C@H]3[C@@H]4[C@H](C)Cc5cc(O)ccc5[C@H]4CC[C@]23C)c(OC)c1` [TAS-108, (7α)-21-[4-[(Diethylamino)methyl]-2-methoxyphenoxy]-7-methyl-19-norpregna-1,3,5(10)-trien-3-ol 2-hydroxy-1,2,3-propanetricarboxylate], for which, in data set [8], the anti-tumor activity entry is listed as “potent anti-tumor activity”. Moreover, in data set [9], the bone density result is reported as “protects against reductions in bone density, similar to Tamoxifen”. The Emax in [10] (BT549, highest dose tested, read-out: Max Inhibition) stood at 100%; in data set [12] (MCF7, highest dose tested, read-out: Max Inhibition), 99%; in [13] (setting [19]), 100%; in [14] (MDAMB231, highest dose tested, read-out: Max Inhibition) it was 100%; in data set [15] (MDAMB468, highest dose tested, read-out: Max Inhibition), 100%; in data set [17] (setting [19]), 100%. Also, the GI50 amounted to 13 µM in data set [10] (BT549, three days, CellTiter-Glo); 10 µM in [12] (MCF7, three days, CellTiter-Glo, read-out: GI50); 11 µM in data set [13] (setting [20]); 9.3 µM in data set [14] (MDAMB231, three days, CellTiter-Glo); 1.8 µM in data set [15] (MDAMB468, three days, CellTiter-Glo); 8.2 µM in data set [17] (setting [20]). Further, the “growth of breast carcinoma cells” value in data set [11] is “inhibits the growth”. The clinical benefit result in data set [16] is reported as “provided clinical benefits”. Further, the tolerability result in data set [16] is reported as “well tolerated”. The uterotrophic activity entry in data set [18] was “significantly less uterotrophic activity compared to Tamoxifen”.
